Measured values published in ChEMBL document CHEMBL4800728, “Data for DCP probe JNJ-54119936” (2021).

Legend:
[1] = target: D(2) dopamine receptor (Homo sapiens) (UniProt P14416); test: D2S (h) CEREP screen; settings: Compound concentration 1.0 uM
[2] = target: Ribosomal protein S6 kinase alpha-2 (Homo sapiens) (UniProt Q15349); test: Rsk3 Invitrogen kinase panel; settings: Compound concentration 10.0 uM
[3] = target: Serine/threonine-protein kinase Chk1 (Homo sapiens) (UniProt O14757); test: CHK1 Invitrogen kinase panel; settings: Compound concentration 10.0 uM
[4] = target: Muscarinic acetylcholine receptor M2 (Homo sapiens) (UniProt P08172); settings: Compound concentration 10.0 uM
[5] = target: Nuclear receptor ROR-gamma (Homo sapiens) (UniProt P51449)
Sequence of Nuclear receptor ROR-gamma (Homo sapiens) (P51449 whole entry): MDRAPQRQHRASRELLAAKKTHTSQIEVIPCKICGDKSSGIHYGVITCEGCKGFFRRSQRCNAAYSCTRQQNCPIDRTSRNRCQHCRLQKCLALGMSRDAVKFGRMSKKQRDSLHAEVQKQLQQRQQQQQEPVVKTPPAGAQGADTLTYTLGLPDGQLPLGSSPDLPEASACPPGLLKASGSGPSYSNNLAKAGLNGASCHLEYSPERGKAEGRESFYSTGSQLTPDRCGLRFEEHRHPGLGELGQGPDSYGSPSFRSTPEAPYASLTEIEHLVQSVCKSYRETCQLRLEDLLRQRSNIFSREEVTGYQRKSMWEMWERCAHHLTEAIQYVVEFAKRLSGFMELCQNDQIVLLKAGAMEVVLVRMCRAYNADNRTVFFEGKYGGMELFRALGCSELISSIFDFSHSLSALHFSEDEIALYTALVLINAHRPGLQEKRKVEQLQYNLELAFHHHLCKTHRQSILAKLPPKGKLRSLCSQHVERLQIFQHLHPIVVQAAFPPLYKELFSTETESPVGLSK

[6] = target: NT-3 growth factor receptor (Homo sapiens) (UniProt Q16288); test: TrkC Invitrogen kinase panel; settings: Compound concentration 10.0 uM
Sequence of NT-3 growth factor receptor (Homo sapiens) (Q16288 32-839 limits assumed): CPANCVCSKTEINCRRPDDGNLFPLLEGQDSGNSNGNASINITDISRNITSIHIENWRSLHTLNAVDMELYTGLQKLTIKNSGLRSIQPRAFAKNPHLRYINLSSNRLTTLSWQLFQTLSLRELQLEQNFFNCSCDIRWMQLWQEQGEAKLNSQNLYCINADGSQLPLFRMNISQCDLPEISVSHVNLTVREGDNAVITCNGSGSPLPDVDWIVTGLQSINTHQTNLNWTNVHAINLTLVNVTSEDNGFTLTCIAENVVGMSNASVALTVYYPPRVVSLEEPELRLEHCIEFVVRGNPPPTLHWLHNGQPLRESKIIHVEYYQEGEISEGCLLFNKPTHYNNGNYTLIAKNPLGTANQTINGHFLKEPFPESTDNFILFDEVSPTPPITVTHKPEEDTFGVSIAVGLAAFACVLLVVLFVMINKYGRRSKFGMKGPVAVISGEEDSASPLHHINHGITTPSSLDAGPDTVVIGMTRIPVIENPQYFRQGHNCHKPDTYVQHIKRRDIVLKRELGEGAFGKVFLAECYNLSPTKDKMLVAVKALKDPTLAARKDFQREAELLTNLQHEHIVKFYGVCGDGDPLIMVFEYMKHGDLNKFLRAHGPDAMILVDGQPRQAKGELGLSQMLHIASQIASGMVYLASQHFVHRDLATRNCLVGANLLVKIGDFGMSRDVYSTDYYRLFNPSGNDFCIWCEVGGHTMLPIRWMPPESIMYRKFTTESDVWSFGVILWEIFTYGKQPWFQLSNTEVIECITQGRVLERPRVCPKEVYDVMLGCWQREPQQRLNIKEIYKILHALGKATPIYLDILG

[7] = target: GABA-A receptor; anion channel (Homo sapiens) (UniProt P14867+P47870+P18507+P28472+P48169+Q99928+Q9UN88+P34903+O00591+O14764+Q8N1C3+P18505+P78334+P47869+P31644+Q16445); test: Cl- channel CEREP screen; format: protein-complex assay
[8] = target: Kappa-type opioid receptor (Homo sapiens) (UniProt P41145); settings: Compound concentration 10.0 uM
Sequence of Kappa-type opioid receptor (Homo sapiens) (P41145 whole entry): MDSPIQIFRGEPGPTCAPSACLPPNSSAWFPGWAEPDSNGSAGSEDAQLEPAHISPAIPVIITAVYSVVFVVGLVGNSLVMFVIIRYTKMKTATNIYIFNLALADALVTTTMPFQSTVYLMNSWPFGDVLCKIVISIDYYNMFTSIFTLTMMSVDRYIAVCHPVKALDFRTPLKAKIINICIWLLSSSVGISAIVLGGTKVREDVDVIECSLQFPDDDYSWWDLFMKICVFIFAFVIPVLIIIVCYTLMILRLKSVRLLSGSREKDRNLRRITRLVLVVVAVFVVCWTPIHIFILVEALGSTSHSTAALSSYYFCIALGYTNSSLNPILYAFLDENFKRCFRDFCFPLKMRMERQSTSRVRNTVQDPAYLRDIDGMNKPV

[9] = target: Alpha-1B adrenergic receptor (Homo sapiens) (UniProt P35368); settings: Compound concentration 10.0 uM
Sequence of Alpha-1B adrenergic receptor (Homo sapiens) (P35368 whole entry): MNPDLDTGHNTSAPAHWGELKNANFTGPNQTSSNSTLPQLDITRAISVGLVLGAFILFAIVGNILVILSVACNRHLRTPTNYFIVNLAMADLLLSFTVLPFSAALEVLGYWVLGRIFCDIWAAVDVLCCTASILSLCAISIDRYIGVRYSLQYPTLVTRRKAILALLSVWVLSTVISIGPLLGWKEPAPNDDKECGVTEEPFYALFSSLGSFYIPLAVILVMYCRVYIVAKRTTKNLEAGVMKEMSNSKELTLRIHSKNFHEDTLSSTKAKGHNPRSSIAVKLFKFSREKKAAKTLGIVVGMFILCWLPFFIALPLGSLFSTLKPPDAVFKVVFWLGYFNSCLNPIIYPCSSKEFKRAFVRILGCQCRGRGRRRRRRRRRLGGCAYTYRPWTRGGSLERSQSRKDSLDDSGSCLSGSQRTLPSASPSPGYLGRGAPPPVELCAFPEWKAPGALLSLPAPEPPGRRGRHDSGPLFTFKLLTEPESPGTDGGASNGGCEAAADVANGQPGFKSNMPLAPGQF

[10] = target: Substance-K receptor (Homo sapiens) (UniProt P21452); test: NK2 (h) CEREP screen; settings: Compound concentration 10.0 uM
Sequence of Substance-K receptor (Homo sapiens) (P21452 whole entry): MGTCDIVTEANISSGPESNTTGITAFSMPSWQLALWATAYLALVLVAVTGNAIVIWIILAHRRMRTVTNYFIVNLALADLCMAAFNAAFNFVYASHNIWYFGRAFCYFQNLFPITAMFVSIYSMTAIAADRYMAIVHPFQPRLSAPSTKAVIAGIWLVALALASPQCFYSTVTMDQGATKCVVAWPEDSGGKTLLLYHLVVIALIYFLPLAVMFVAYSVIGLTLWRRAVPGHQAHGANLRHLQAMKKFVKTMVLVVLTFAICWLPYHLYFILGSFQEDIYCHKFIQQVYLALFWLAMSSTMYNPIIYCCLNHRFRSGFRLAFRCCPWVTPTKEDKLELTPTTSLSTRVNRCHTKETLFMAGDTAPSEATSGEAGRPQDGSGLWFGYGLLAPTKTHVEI

[11] = target: Death-associated protein kinase 3 (Homo sapiens) (UniProt O43293); test: ZIPK Invitrogen kinase panel; settings: Compound concentration 10.0 uM
Sequence of Death-associated protein kinase 3 (Homo sapiens) (O43293 whole entry, looked up): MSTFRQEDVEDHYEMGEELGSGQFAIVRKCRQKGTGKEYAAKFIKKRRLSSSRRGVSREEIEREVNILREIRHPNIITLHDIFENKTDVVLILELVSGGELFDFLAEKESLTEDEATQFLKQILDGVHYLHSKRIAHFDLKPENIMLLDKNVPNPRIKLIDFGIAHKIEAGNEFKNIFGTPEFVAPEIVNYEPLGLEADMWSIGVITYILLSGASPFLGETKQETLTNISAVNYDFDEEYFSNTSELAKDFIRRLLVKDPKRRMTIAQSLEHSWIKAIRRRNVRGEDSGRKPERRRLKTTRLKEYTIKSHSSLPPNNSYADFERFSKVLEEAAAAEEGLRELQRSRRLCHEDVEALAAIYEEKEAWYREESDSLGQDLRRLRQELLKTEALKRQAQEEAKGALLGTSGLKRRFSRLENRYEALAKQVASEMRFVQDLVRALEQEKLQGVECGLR

[12] = target: Nuclear receptor ROR-beta (Homo sapiens) (UniProt Q92753); test: ThermoFluor Binding Assay (RORB)
[13] = target: Inhibitor of nuclear factor kappa-B kinase subunit beta (Homo sapiens) (UniProt O14920); test: IKKbeta Invitrogen kinase panel; settings: Compound concentration 10.0 uM
[14] = target: C-X-C chemokine receptor type 2 (Homo sapiens) (UniProt P25025); test: CXCR2 (h) CEREP screen; settings: Compound concentration 1.0 uM
[15] = target: 5-hydroxytryptamine receptor 2B (Homo sapiens) (UniProt P41595); settings: Compound concentration 10.0 uM
[16] = target: Alpha-2C adrenergic receptor (Homo sapiens) (UniProt P18825); settings: Compound concentration 10.0 uM
[17] = target: Mitogen-activated protein kinase 13 (Homo sapiens) (UniProt O15264); test: p38delta Invitrogen kinase panel; settings: Compound concentration 10.0 uM
Sequence of Mitogen-activated protein kinase 13 (Homo sapiens) (O15264 whole entry): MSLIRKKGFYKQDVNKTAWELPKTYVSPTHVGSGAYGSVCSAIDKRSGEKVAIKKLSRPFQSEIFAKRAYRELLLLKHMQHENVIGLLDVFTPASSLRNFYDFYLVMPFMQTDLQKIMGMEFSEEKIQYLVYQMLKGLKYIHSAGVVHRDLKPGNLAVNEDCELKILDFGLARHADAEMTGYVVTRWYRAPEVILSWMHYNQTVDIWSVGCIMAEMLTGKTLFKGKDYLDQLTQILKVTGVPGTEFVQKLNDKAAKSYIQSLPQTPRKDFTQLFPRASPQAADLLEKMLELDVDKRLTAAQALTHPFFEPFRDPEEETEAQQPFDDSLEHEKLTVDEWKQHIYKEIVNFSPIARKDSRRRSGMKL

[18] = target: Serine/threonine-protein kinase PLK3 (Homo sapiens) (UniProt Q9H4B4); test: Plk3 Invitrogen kinase panel; settings: Compound concentration 10.0 uM
Sequence of Serine/threonine-protein kinase PLK3 (Homo sapiens) (Q9H4B4 whole entry, looked up): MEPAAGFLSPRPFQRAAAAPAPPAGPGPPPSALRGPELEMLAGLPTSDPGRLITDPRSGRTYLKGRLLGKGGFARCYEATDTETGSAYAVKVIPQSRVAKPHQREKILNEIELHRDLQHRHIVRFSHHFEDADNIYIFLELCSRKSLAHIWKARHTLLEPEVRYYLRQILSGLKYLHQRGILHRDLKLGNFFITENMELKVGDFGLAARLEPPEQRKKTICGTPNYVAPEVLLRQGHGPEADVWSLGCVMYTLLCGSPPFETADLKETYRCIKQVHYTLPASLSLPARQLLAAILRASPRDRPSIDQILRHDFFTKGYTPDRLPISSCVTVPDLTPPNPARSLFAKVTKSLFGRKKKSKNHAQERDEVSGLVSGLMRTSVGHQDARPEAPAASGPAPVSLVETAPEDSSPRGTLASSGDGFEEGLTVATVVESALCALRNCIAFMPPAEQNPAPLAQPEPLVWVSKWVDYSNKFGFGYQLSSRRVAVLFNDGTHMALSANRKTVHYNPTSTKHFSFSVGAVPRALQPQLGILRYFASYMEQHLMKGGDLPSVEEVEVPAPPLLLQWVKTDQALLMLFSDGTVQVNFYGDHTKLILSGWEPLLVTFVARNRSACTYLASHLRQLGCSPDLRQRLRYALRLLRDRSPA

[19] = target: Melanocortin receptor 4 (Homo sapiens) (UniProt P32245); test: MC4 (h) CEREP screen; settings: Compound concentration 10.0 uM
Sequence of Melanocortin receptor 4 (Homo sapiens) (P32245 whole entry): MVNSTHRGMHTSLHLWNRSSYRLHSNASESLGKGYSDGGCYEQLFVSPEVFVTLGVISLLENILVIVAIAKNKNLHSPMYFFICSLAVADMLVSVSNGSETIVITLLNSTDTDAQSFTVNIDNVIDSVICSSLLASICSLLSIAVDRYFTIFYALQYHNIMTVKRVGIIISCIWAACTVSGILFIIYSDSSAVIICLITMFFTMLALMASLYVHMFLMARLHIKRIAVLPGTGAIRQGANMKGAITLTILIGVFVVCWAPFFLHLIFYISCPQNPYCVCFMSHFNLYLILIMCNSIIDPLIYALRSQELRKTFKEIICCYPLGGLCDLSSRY

[20] = target: Beta-3 adrenergic receptor (Homo sapiens) (UniProt P13945); settings: Compound concentration 10.0 uM
[21] = target: Interleukin-1 receptor-associated kinase 4 (Homo sapiens) (UniProt Q9NWZ3); test: IRAK4 Invitrogen kinase panel; settings: Compound concentration 10.0 uM
[22] = target: Oxysterols receptor LXR-beta (Homo sapiens, UniProt P55055); test: (§1) LXRbeta In-house nuclear receptor screen
[23] = target: T1, Oxysterols receptor LXR-beta (Homo sapiens) (UniProt P55055); test: as §1; settings: Compound concentration 3.0 uM
T1 sequence (whole entry): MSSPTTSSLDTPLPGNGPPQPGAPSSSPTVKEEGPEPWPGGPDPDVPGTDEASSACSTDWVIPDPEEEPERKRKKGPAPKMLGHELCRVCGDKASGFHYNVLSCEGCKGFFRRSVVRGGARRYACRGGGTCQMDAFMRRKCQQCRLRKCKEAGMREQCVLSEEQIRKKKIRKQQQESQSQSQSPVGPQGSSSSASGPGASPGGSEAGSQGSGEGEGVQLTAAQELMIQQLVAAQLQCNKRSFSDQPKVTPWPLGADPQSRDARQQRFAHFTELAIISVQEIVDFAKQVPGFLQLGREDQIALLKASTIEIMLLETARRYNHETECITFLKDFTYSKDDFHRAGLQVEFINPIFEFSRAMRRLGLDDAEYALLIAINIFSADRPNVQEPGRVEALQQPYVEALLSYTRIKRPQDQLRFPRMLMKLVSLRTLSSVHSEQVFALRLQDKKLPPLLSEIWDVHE

[24] = target: T2, Estrogen receptor (Homo sapiens) (UniProt P03372); test: ERalpha Indigo Bioscience nuclear receptor screen
T2 sequence (whole entry): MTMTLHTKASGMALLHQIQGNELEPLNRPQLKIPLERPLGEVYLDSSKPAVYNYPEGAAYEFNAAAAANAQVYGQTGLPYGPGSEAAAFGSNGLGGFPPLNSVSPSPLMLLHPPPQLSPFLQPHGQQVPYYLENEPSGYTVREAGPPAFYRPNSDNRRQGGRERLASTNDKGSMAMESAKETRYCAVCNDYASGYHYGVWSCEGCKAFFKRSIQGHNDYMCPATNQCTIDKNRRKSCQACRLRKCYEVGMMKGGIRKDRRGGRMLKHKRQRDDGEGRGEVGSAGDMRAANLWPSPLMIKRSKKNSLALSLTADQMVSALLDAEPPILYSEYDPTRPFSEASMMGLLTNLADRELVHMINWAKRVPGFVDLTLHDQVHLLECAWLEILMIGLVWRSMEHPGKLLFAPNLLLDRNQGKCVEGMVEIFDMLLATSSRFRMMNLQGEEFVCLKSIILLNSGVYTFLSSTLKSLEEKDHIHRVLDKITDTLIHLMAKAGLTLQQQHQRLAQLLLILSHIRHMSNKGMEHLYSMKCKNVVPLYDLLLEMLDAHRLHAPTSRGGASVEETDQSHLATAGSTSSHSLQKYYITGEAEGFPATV

[25] = target: Protein kinase C beta type (Homo sapiens) (UniProt P05771); test: PKCbetaI Invitrogen kinase panel; settings: Compound concentration 10.0 uM
[26] = target: T3, CAR (nuclear receptor subfamily 1 group I member 3) (Homo sapiens, UniProt Q14994); test: CAR Indigo Bioscience nuclear receptor screen
T3 sequence (Q14994 whole entry): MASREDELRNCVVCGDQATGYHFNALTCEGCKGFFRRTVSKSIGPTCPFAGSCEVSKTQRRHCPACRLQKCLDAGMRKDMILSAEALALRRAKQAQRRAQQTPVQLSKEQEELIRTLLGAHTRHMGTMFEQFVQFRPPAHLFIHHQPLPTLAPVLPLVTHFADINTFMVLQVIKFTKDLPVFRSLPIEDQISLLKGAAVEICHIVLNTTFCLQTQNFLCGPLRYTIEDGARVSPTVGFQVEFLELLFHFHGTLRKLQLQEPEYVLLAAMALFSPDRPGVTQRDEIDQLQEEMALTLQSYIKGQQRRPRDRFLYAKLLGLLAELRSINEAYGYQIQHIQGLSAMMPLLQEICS

[27] = target: Glycogen synthase kinase-3 beta (Homo sapiens) (UniProt P49841); test: GSK3beta Invitrogen kinase panel; settings: Compound concentration 10.0 uM
Sequence of Glycogen synthase kinase-3 beta (Homo sapiens) (P49841 whole entry, looked up): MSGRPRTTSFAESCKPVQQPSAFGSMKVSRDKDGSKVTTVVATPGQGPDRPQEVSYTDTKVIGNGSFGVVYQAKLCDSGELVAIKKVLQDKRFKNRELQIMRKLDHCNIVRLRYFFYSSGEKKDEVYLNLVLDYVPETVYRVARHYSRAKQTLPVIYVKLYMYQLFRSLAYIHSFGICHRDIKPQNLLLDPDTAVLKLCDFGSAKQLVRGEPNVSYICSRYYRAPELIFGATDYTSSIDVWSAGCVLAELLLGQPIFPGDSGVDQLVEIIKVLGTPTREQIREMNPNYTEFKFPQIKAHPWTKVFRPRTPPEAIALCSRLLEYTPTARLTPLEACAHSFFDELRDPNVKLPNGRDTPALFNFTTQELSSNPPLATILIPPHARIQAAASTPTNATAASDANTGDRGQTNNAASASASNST

- inhibition [1]: 10%
- inhibition [2]: 11%
- inhibition [3]: 2%
- inhibition [4]: 1.16%
- qKD [5]: 5.3 nM
- inhibition [6]: 3%
- inhibition ([7]; Compound concentration 1.0 uM): 21%
- inhibition ([7]; Compound concentration 10.0 uM): 44%
- inhibition [8]: -6%
- inhibition [9]: -4.69%
- inhibition [10]: 23%
- qKD [12]: > 75 µM
- inhibition [13]: 6%
- inhibition [14]: 10%
- inhibition [15]: 18.7%
- inhibition [16]: 39.8%
- inhibition [17]: 14%
- inhibition [18]: 3%
- inhibition [19]: 14%
- inhibition [20]: 39.4%
- inhibition [21]: 6%
- IC50 [22]: ~5 µM
- inhibition [23]: 10%
- inhibition ([24]; Compound concentration 0.3 uM): -1.2%
- inhibition ([24]; Compound concentration 1.0 uM): 0.61%
- inhibition ([24]; Compound concentration 3.0 uM): -3.01%
- inhibition [25]: 1%
- inhibition at 0.3 µM ([26]; compound concentration 0.3 uM): -0.121% (not active)
- inhibition at 1 µM ([26]; compound concentration 1 uM): -0.752% (not active)
- inhibition at 3 µM ([26]; compound concentration 3 uM): 2.37% (not active)
- inhibition [27]: 3%
Structure (SMILES): COc1nc2ccc([C@@](O)(c3ccccc3)C3CCN(C(C)=O)CC3)cc2c(Cl)c1Cc1ccc(-n2cccn2)cc1 [JNJ-54119936]
- inhibition [11]: 10%
